The structures appear in SMILES notation.

The target of data set [1] is T1, Cytosolic phospholipase A2 (Homo sapiens, UniProt P47712).
T1 sequence (P47712 whole entry): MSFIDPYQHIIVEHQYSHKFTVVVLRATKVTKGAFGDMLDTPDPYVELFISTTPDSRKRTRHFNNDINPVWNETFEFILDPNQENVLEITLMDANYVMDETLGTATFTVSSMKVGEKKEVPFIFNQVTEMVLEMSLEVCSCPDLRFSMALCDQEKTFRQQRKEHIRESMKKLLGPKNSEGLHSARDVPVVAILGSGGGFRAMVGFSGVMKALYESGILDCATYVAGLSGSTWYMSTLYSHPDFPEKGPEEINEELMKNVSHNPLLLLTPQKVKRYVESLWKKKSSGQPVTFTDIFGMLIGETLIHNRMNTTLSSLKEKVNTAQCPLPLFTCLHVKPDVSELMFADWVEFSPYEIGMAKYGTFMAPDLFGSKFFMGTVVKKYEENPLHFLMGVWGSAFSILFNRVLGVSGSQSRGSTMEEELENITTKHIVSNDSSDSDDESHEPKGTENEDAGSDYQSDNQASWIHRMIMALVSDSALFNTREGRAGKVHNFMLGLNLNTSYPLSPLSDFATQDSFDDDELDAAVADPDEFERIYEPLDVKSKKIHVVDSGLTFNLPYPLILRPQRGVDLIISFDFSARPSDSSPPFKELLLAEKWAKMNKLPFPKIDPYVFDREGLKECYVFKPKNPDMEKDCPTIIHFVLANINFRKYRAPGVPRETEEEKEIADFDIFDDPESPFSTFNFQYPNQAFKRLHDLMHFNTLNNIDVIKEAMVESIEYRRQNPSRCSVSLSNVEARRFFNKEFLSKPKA
The data set can be described thus: In vitro inhibition of cystolic phospholipase A2 alpha.

A short description of data set [2]: Oral bioavailability in rat (dose 10 mg/kg). It is filed as ADME, organism-based. The settings on record: in vivo.
Data set [3] addresses T1, Cytosolic phospholipase A2. As to the kind of experiment: Inhibitory concentration against cystolic phospholipase A2 alpha receptor (c-PLA2 alpha) using coumarin assay.
Another data set is filed under the species Homo sapiens. As to the kind of experiment: Inhibitory concentration against arachidonic acid release determined in human neutrophils PMN assay. It is filed as functional.

In data set [1], `COc1cc(C(=O)O)ccc1Cc1cn(C(c2ccccc2)c2ccccc2)c2ccc(NC(=O)OC3CCCC3)cc12` returned an IC50 of 5 µM.
On to `COc1cc(C(=O)O)ccc1Cc1cn(C(c2ccccc2)c2ccccc2)c2ccc(NS(C)(=O)=O)cc12`, for which, in data set [1], the IC50 was determined as 20 µM.
The same measure, in the same setting: the figure for `COc1cc(C(=O)O)ccc1Cc1cn(C(c2ccccc2)c2ccccc2)c2ccc(S(C)(=O)=O)cc12` is 2 µM; for `COc1cc(C(=O)O)ccc1Cc1cn(C(c2ccccc2)c2ccccc2)c2ccc(F)cc12` it is 1 µM.
The same measure, in the same setting: the figure for `COc1cc(C(=O)O)ccc1Cc1cn(C(c2ccccc2)c2ccccc2)c2cccc(Cl)c12` is 4.5 µM.
Take `COc1cc(C(=O)O)ccc1Cc1cn(C(c2ccccc2)c2ccccc2)c2cc(Cl)ccc12`: in data set [2], the bioavailability stood at 63%. In data set [1], this compound yielded a concentration for half-maximal inhibition (IC50) of 0.8 µM.
In data set [1], `COc1cc(C(=O)O)ccc1Cc1cn(C(c2ccccc2)c2ccccc2)c2ccccc12` came in with an IC50 of 3.6 µM.
The same measure, in the same setting: the figure for `COc1cc(C(=O)NS(=O)(=O)c2ccccc2C)ccc1Cc1cn(Cc2ccncc2)c2ccc(NC(=O)OC3CCCC3)cc12` is 38 µM; for `CCCCNC(=O)Nc1ccc2c(c1)c(Cc1ccc(C(=O)O)cc1OC)cn2C(c1ccccc1)c1ccccc1` it is 15 µM.
Consider `COc1cc(C(=O)O)ccc1Cc1cn(C(c2ccccc2)c2ccccc2)c2ccc(Br)cc12`, for which the bioavailability in data set [2] was 16%. The IC50 in data set [3] was found to be 0.6 µM; in the data set filed under Homo sapiens, 1.2 µM.
In turn, `COc1cc(C(=O)NS(=O)(=O)c2ccccc2C)ccc1Cc1cn(C2CCCC2)c2ccc(NC(=O)OC3CCCC3)cc12` registered an IC50 in data set [1] of 17 µM.
Still for that read-out and setting: to `COc1cc(C(=O)O)ccc1Cc1cn(C(c2ccccc2)c2ccccc2)c2ccc(N)cc12` belongs 41 µM.
With `COc1cc(C(=O)NS(=O)(=O)c2ccccc2C)ccc1Cc1cn(CC2CC2)c2ccc(NC(=O)OC3CCCC3)cc12`, the IC50 in data set [1] was 20 µM.
`COc1cc(C(=O)O)ccc1Cc1cn(C(c2ccccc2)c2ccccc2)c2ccc(C)cc12` yielded a bioavailability in data set [2] of 38%. Also, the IC50 in data set [3] is 0.9 µM.
In turn, `COc1cc(C(=O)O)ccc1Cc1cn(C(c2ccccc2)c2ccccc2)c2ccc(N(C)C)cc12` had an IC50 in data set [1] of 24 µM.
As for `COc1cc(C(=O)O)ccc1Cc1cn(C(c2ccccc2)c2ccccc2)c2ccc(Cl)cc12`, the bioavailability in data set [2] turned out to be 22%. The IC50 turned out to be 0.4 µM in data set [3] and 1.8 µM in the data set listed under Homo sapiens.
Turning to `COc1cc(C(=O)O)ccc1Cc1cn(C(c2ccccc2)c2ccccc2)c2c(Cl)cccc12`, the IC50 in data set [1] is 2.1 µM.
As to `COc1cc(C(=O)O)ccc1Cc1cn(C(c2ccccc2)c2ccccc2)c2ccc([N+](=O)[O-])cc12`, the figures for the IC50 (in data set [3]; in the data set listed under Homo sapiens) were 0.4 µM and 1.8 µM, respectively.
For `COc1ccc2c(c1)c(Cc1ccc(C(=O)O)cc1OC)cn2C(c1ccccc1)c1ccccc1`, the IC50 in data set [1] is 1.9 µM.
Still for that read-out and setting: the figure for `COc1cc(C(=O)NS(=O)(=O)c2ccccc2C)ccc1Cc1cn(C(c2ccccc2)c2ccccc2)c2ccc(NC(=O)OC3CCCC3)cc12` is 6 µM.
`COc1cc(C(=O)O)ccc1Cc1cn(C(c2ccccc2)c2ccccc2)c2ccc(C#N)cc12`: the bioavailability in data set [2] worked out at 19%. The IC50 was 0.8 µM in data set [3] and 1.3 µM in the data set filed under Homo sapiens.
`COc1cc(C(=O)NS(=O)(=O)c2ccccc2C)ccc1Cc1cn(C)c2ccc(NC(=O)OC3CCCC3)cc12` [ZAFIRLUKAST] registered an IC50 in data set [1] of 85 µM.

By IC50 is commonly meant the concentration that inhibits the measured activity by half. The low end stands for greater potency in that assay, the high end for weaker potency in that assay. Usually bioavailability stands for the share of a dose that reaches the circulation, judged against a reference dose that is usually intravenous.

The values are drawn from ChEMBL document CHEMBL1145756, “Structure-activity relationships of indole cytosolic phospholipase A(2)alpha inhibitors: substrate mimetics” (Bioorg Med Chem Lett, 2003).
